Reference: the supplement of paper PMC10883282

Legend:
Assay in all cases: relative viability vs DMSO control (72 h) (fraction); higher = more viable cells
A204 = test system: A204
Procedure, shortened: (§1)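 Sarcoma cell lines were plated in 384 wells to reach 80–90% confluence, treated after 24 h with 2.5 µl of serially diluted compound and held 72 h at 37 °C, 5% CO2. Relative viability was taken as percent growth from ATPLite readings, averaged over up to triplicate wells. The values were rescaled so that 1 marks full and 0 marks none.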

G401 = test system: G401
Procedure, shortened: as §1

HS729 = test system: HS729
Procedure, shortened: as §1

HT1080 = test system: HT1080
Procedure, shortened: as §1

KHOS-NP = test system: KHOS-NP
Procedure, shortened: as §1

MES-SA = test system: MES-SA
Procedure, shortened: as §1

SK-LMS-1 = test system: SK-LMS-1
Procedure, shortened: as §1

SW1353 = test system: SW1353
Procedure, shortened: as §1

SW684 = test system: SW684
Procedure, shortened: as §1

SW872 = test system: SW872
Procedure, shortened: as §1

SYO-1 = test system: SYO-1
Procedure, shortened: as §1

VA-ES-BJ = test system: VA-ES-BJ
Procedure, shortened: as §1

Cc1cc2c(F)c(Oc3ncnn4cc(OC[C@@H](C)OC(=O)[C@H](C)N)c(C)c34)ccc2[nH]1 [Brivanib_alaninate]
Conditions	relative viability
A204, 0.00017 µM	1.05
A204, 0.00051 µM	1.05
A204, 0.00152 µM	1.07
A204, 0.00457 µM	1.11
A204, 0.01372 µM	1.08
A204, 0.04115 µM	1.04
A204, 0.1235 µM	1.03
A204, 0.3704 µM	1.05
A204, 1.111 µM	0.999
A204, 3.333 µM	0.958
A204, 10 µM	0.567
G401, 0.00017 µM	0.968
G401, 0.00051 µM	0.967
G401, 0.00152 µM	1
G401, 0.00457 µM	1.01
G401, 0.01372 µM	0.974
G401, 0.04115 µM	0.995
G401, 0.1235 µM	0.982
G401, 0.3704 µM	0.976
G401, 1.111 µM	1
G401, 3.333 µM	0.953
G401, 10 µM	0.8674
HS729, 0.00017 µM	0.943
HS729, 0.00051 µM	0.893
HS729, 0.00152 µM	0.914
HS729, 0.00457 µM	0.878
HS729, 0.01372 µM	0.9
HS729, 0.04115 µM	0.897
HS729, 0.1235 µM	0.877
HS729, 0.3704 µM	0.898
HS729, 1.111 µM	0.923
HS729, 3.333 µM	0.891
HS729, 10 µM	0.782
HT1080, 0.00017 µM	1.05
HT1080, 0.00051 µM	1.04
HT1080, 0.00152 µM	1.06
HT1080, 0.00457 µM	1.03
HT1080, 0.01372 µM	1.04
HT1080, 0.04115 µM	1.03
HT1080, 0.1235 µM	1.04
HT1080, 0.3704 µM	1.054
HT1080, 1.111 µM	1.047
HT1080, 3.333 µM	0.99
HT1080, 10 µM	0.978
KHOS-NP, 0.00017 µM	1.04
KHOS-NP, 0.00051 µM	1.05
KHOS-NP, 0.00152 µM	1.05
KHOS-NP, 0.00457 µM	1.06
KHOS-NP, 0.01372 µM	1.059
KHOS-NP, 0.04115 µM	1.07
KHOS-NP, 0.1235 µM	1.03
KHOS-NP, 0.3704 µM	1.03
KHOS-NP, 1.111 µM	1.02
KHOS-NP, 3.333 µM	0.917
KHOS-NP, 10 µM	0.6654
MES-SA, 0.00017 µM	0.919
MES-SA, 0.00051 µM	0.939
MES-SA, 0.00152 µM	0.939
MES-SA, 0.00457 µM	0.929
MES-SA, 0.01372 µM	0.927
MES-SA, 0.04115 µM	0.911
MES-SA, 0.1235 µM	0.92
MES-SA, 0.3704 µM	0.942
MES-SA, 1.111 µM	0.956
MES-SA, 3.333 µM	0.829
MES-SA, 10 µM	0.5146
SK-LMS-1, 0.00017 µM	0.967
SK-LMS-1, 0.00051 µM	0.995
SK-LMS-1, 0.00152 µM	0.978
SK-LMS-1, 0.00457 µM	1.01
SK-LMS-1, 0.01372 µM	1.01
SK-LMS-1, 0.04115 µM	0.987
SK-LMS-1, 0.1235 µM	0.989
SK-LMS-1, 0.3704 µM	0.998
SK-LMS-1, 1.111 µM	1
SK-LMS-1, 3.333 µM	0.606
SK-LMS-1, 10 µM	0.512
SW684, 0.00017 µM	1.15
SW684, 0.00051 µM	1.15
SW684, 0.00152 µM	1.17
SW684, 0.00457 µM	1.14
SW684, 0.01372 µM	1.08
SW684, 0.04115 µM	1.07
SW684, 0.1235 µM	1.09
SW684, 0.3704 µM	1.17
SW684, 1.111 µM	1.141
SW684, 3.333 µM	1.13
SW684, 10 µM	1.19
SW872, 0.00017 µM	0.98
SW872, 0.00051 µM	0.967
SW872, 0.00152 µM	0.991
SW872, 0.00457 µM	0.988
SW872, 0.01372 µM	0.968
SW872, 0.04115 µM	0.973
SW872, 0.1235 µM	0.986
SW872, 0.3704 µM	1.02
SW872, 1.111 µM	1.04
SW872, 3.333 µM	1.05
SW872, 10 µM	1.03
SW1353, 0.00017 µM	0.949
SW1353, 0.00051 µM	0.952
SW1353, 0.00152 µM	0.999
SW1353, 0.00457 µM	0.928
SW1353, 0.01372 µM	0.97
SW1353, 0.04115 µM	0.963
SW1353, 0.1235 µM	0.94
SW1353, 0.3704 µM	0.958
SW1353, 1.111 µM	0.97
SW1353, 3.333 µM	0.984
SW1353, 10 µM	0.977
SYO-1, 0.00017 µM	0.934
SYO-1, 0.00051 µM	0.937
SYO-1, 0.00152 µM	0.94
SYO-1, 0.00457 µM	0.927
SYO-1, 0.01372 µM	0.9194
SYO-1, 0.04115 µM	0.914
SYO-1, 0.1235 µM	0.906
SYO-1, 0.3704 µM	0.903
SYO-1, 1.111 µM	0.846
SYO-1, 3.333 µM	0.673
SYO-1, 10 µM	0.586
VA-ES-BJ, 0.00017 µM	1.02
VA-ES-BJ, 0.00051 µM	1.02
VA-ES-BJ, 0.00152 µM	1.03
VA-ES-BJ, 0.00457 µM	1.03
VA-ES-BJ, 0.01372 µM	1.04
VA-ES-BJ, 0.04115 µM	0.984
VA-ES-BJ, 0.1235 µM	1.02
VA-ES-BJ, 0.3704 µM	1.04
VA-ES-BJ, 1.111 µM	1.07
VA-ES-BJ, 3.333 µM	1.03
VA-ES-BJ, 10 µM	0.983

CNC(=O)c1cccc2cc(Oc3ccnc4cc(OCC5(N)CC5)c(OC)cc34)ccc12 [Lucitanib]
Conditions	relative viability
A204, 0.00017 µM	1.04
A204, 0.00051 µM	1.07
A204, 0.00152 µM	1.04
A204, 0.00457 µM	1.01
A204, 0.01372 µM	0.859
A204, 0.04115 µM	0.584
A204, 0.1235 µM	0.421
A204, 0.3704 µM	0.391
A204, 1.111 µM	0.265
A204, 3.333 µM	0.172
A204, 10 µM	0.153
G401, 0.00017 µM	1.07
G401, 0.00051 µM	1.04
G401, 0.00152 µM	1.02
G401, 0.00457 µM	0.989
G401, 0.01372 µM	1
G401, 0.04115 µM	1.01
G401, 0.1235 µM	0.964
G401, 0.3704 µM	0.888
G401, 1.111 µM	0.641
G401, 3.333 µM	0.451
G401, 10 µM	0.349
HS729, 0.00017 µM	1.08
HS729, 0.00051 µM	1.07
HS729, 0.00152 µM	1.07
HS729, 0.00457 µM	1.04
HS729, 0.01372 µM	1.01
HS729, 0.04115 µM	0.983
HS729, 0.1235 µM	0.915
HS729, 0.3704 µM	0.866
HS729, 1.111 µM	0.692
HS729, 3.333 µM	0.618
HS729, 10 µM	0.568
HT1080, 0.00017 µM	1.08
HT1080, 0.00051 µM	1.09
HT1080, 0.00152 µM	1.1
HT1080, 0.00457 µM	1.07
HT1080, 0.01372 µM	1.1
HT1080, 0.04115 µM	1.09
HT1080, 0.1235 µM	1.095
HT1080, 0.3704 µM	1.09
HT1080, 1.111 µM	1.11
HT1080, 3.333 µM	1.12
HT1080, 10 µM	1.14
KHOS-NP, 0.00017 µM	1.103
KHOS-NP, 0.00051 µM	1.13
KHOS-NP, 0.00152 µM	1.12
KHOS-NP, 0.00457 µM	1.11
KHOS-NP, 0.01372 µM	1.11
KHOS-NP, 0.04115 µM	1.11
KHOS-NP, 0.1235 µM	1.126
KHOS-NP, 0.3704 µM	1.11
KHOS-NP, 1.111 µM	1.12
KHOS-NP, 3.333 µM	1.12
KHOS-NP, 10 µM	1.13
MES-SA, 0.00017 µM	0.983
MES-SA, 0.00051 µM	0.976
MES-SA, 0.00152 µM	0.965
MES-SA, 0.00457 µM	0.957
MES-SA, 0.01372 µM	0.978
MES-SA, 0.04115 µM	0.955
MES-SA, 0.1235 µM	0.95
MES-SA, 0.3704 µM	0.961
MES-SA, 1.111 µM	0.813
MES-SA, 3.333 µM	0.615
MES-SA, 10 µM	0.265
SK-LMS-1, 0.00017 µM	1.071
SK-LMS-1, 0.00051 µM	1.09
SK-LMS-1, 0.00152 µM	1.056
SK-LMS-1, 0.00457 µM	1.08
SK-LMS-1, 0.01372 µM	1.04
SK-LMS-1, 0.04115 µM	1.03
SK-LMS-1, 0.1235 µM	0.988
SK-LMS-1, 0.3704 µM	0.999
SK-LMS-1, 1.111 µM	0.958
SK-LMS-1, 3.333 µM	0.8754
SK-LMS-1, 10 µM	0.758
SW684, 0.00017 µM	1.14
SW684, 0.00051 µM	1.23
SW684, 0.00152 µM	1.26
SW684, 0.00457 µM	1.23
SW684, 0.01372 µM	1.21
SW684, 0.04115 µM	1.21
SW684, 0.1235 µM	1.15
SW684, 0.3704 µM	1.18
SW684, 1.111 µM	1.19
SW684, 3.333 µM	1.12
SW684, 10 µM	1.11
SW872, 0.00017 µM	1.07
SW872, 0.00051 µM	1.08
SW872, 0.00152 µM	1.056
SW872, 0.00457 µM	1.07
SW872, 0.01372 µM	1.07
SW872, 0.04115 µM	1.059
SW872, 0.1235 µM	1.038
SW872, 0.3704 µM	1.057
SW872, 1.111 µM	1.07
SW872, 3.333 µM	1.04
SW872, 10 µM	0.961
SW1353, 0.00017 µM	1.11
SW1353, 0.00051 µM	1.06
SW1353, 0.00152 µM	1.04
SW1353, 0.00457 µM	1.067
SW1353, 0.01372 µM	1.03
SW1353, 0.04115 µM	0.967
SW1353, 0.1235 µM	0.938
SW1353, 0.3704 µM	0.909
SW1353, 1.111 µM	0.8515
SW1353, 3.333 µM	0.862
SW1353, 10 µM	0.874
SYO-1, 0.00017 µM	1.03
SYO-1, 0.00051 µM	1.04
SYO-1, 0.00152 µM	1.01
SYO-1, 0.00457 µM	0.984
SYO-1, 0.01372 µM	0.919
SYO-1, 0.04115 µM	0.825
SYO-1, 0.1235 µM	0.688
SYO-1, 0.3704 µM	0.561
SYO-1, 1.111 µM	0.504
SYO-1, 3.333 µM	0.49
SYO-1, 10 µM	0.385
VA-ES-BJ, 0.00017 µM	1.08
VA-ES-BJ, 0.00051 µM	1.07
VA-ES-BJ, 0.00152 µM	1.09
VA-ES-BJ, 0.00457 µM	1.091
VA-ES-BJ, 0.01372 µM	1.1
VA-ES-BJ, 0.04115 µM	1.11
VA-ES-BJ, 0.1235 µM	1.12
VA-ES-BJ, 0.3704 µM	1.13
VA-ES-BJ, 1.111 µM	1.16
VA-ES-BJ, 3.333 µM	1.14
VA-ES-BJ, 10 µM	0.914
